Data reported in patent EP4682145A1, “BENZOHETEROCYCLIC COMPOUND, AND PREPARATION METHOD THEREFOR AND USE THEREOF” (Cascade Pharmaceuticals, Inc., priority 2023, dated 2024).

Assays:
[1] = biological target: T1, human FFAR1 (GPR40) (Homo sapiens, UniProt O14842); experiment: NFAT-RE-based reporter gene activity assay (Dual-Glo luciferase) for GPR40 agonistic activity in co-transfected HEK293T cells; format: cell-based; conditions: 4-hour treatment
T1 construct: Flag; expressed in transfected cells; host or cells: HEK293T
T1 sequence (O14842 whole entry): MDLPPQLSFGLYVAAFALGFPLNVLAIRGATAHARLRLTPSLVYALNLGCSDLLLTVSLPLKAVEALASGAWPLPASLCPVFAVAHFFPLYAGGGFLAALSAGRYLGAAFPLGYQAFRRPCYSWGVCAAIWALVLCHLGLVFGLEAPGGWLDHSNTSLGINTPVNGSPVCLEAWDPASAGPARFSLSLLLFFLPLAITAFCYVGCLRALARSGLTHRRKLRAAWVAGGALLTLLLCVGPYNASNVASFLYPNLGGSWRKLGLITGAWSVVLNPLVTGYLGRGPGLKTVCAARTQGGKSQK
Method in brief: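 HEK293T cells co-transfected with human FFAR1, NFAT-RE firefly luciferase and TK-Renilla plasmids; 24 h later treated 4 h with 10 half-log compound dilutions from 1 µM. Firefly/Renilla ratio normalised to DMSO; EC50 from four-parameter fit.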

[2] = test system: C57BL6/J mice; experiment: In vivo pharmacodynamic assay for non-alcoholic fatty liver disease (high-fat, high-cholesterol, high-fructose diet mice); conditions: for Hepatic Hydroxyproline / Total Liver Hydroxyproline (µg/liver): liver; for ALT (U/L) / AST (U/L): serum
Protocol: Normal male C57BL6/J mice ([…]) were fed a high-fat, high-cholesterol, high-fructose diet (D09100310, Research Diets) for 20 weeks. Based on body weight and biochemical data, the mice were randomly divided into groups, with 6 mice per group. The compound 169 (0.03, 0.1, and 0.6 mg/kg) was administered via oral gavage. The positive control was MGL3196 (1 mg/kg), and the blank control group consisted of mice of the same strain and age fed a normal diet for the same duration. The blank control and model control groups were given the vehicle (15% solutol + 85% DDW), totaling 6 groups. Administration was performed once daily for 28 days. After overnight fasting, on day 29 at the experimental endpoint, blood was collected from the heart after CO2 euthanasia. Serum ALT and AST biochemical indicators were measured, and liver tissue was harvested for hepatic hydroxyproline content determination.
Blood was collected using anticoagulant-free tubes, allowed to stand at room temperature for 30 minutes, and then centrifuged at 4000 rpm for 10 minutes to separate serum, which was tested by Dian Diagnostics. Approximately 50 mg of liver tissue was taken from each mouse and tested according to the hydroxyproline assay kit method (Nanjing Jiancheng, Cat. No.: A030-2-1).
Data were expressed as mean ± standard deviation. One-way ANOVA was employed for statistical analysis, with p < 0.05 considered statistically significant.

[3] = 0.03 mpk oral gavage once daily for 28 days
[4] = 0.1 mpk oral gavage once daily for 28 days
[5] = 0.6 mpk oral gavage once daily for 28 days

Structure (SMILES): COc1ccc(F)c(N2CCC(c3oc4cc([C@@H](CC(=O)O)C5CC5)ccc4c3-c3ccc(C(C)(C)C)cc3)CC2)c1 [Compound 169]
- EC50 [1]: 100 to 500 nM
- Efficacy (%) ([1]; class symbols): ††† (Efficacy (%) > 150)
- Hepatic Hydroxyproline [2, 3]: 128.06 ± 55.18 µg/g
- Total Liver Hydroxyproline (µg/liver) [2, 3]: 308.56±121.44 µg/liver
- ALT (U/L) [2, 3]: 148±81.95 U/L
- AST (U/L) [2, 3]: 204.5±79.09 U/L
- Hepatic Hydroxyproline [2, 4]: 119.16 ± 39.65 µg/g
- Total Liver Hydroxyproline (µg/liver) [2, 4]: 266.4±80.67 µg/liver
- ALT (U/L) [2, 4]: 110±37.12 U/L
- AST (U/L) [2, 4]: 156±30.59 U/L
- Hepatic Hydroxyproline [2, 5]: 85.24 ± 47.63 µg/g
- Total Liver Hydroxyproline (µg/liver) [2, 5]: 187.94±110.56 µg/liver
- ALT (U/L) [2, 5]: 103.8±35.53 U/L
- AST (U/L) [2, 5]: 163.2±42.98 U/L
- liver protection and liver fibrosis inhibition effects ([2]; doses of 0.03, 0.1, and 0.6 mg/kg, compared with the model control): reduced ALT, AST, and liver hydroxyproline levels
